pIC50: −log10 of the molar value.

The results in this text go back to BindingDB's records for doi:10.1016/s0960-894x(01)00026-9 (University of Minnesota, 2001).

Test [1] in a line: Inhibitory concentration against Protein phosphatase 2A (25 nM) isolated from bovine myocardial tissue.
The target of test [2] is Serine/threonine-protein phosphatase PP1 catalytic subunit (Oryctolagus cuniculus). In words: Inhibitory concentration against Protein phosphatase 1(10 nM) isolated from rabbit muscle.

A word on the pIC50: it is the IC50 on a negative log10 scale, so that one unit is a factor of ten. High values mean a small IC50, low ones a large IC50. In the case of `C=C1[C@@H](O)[C@@H]2O[C@]3(CC[C@H](/C=C/[C@@H](C)[C@@H]4CC(C)=C[C@@]5(O[C@H](C[C@@](C)(O)C(=O)O)CC[C@H]5O)O4)O3)CC[C@H]2O[C@@H]1[C@@H](O)C[C@H](C)[C@H]1O[C@@]2(CCCCO2)CC[C@H]1C` [okadaic acid analogue], in test [1], the pIC50 was 8.15.
For `C=C1[C@@H](O)[C@@H]2O[C@]3(CC[C@H](/C=C/[C@@H](C)[C@@H]4CC(C)=C[C@@]5(O[C@H](C[C@@](C)(O)C(=O)O)CC[C@H]5O)O4)O3)CC[C@H]2O[C@@H]1CO` [okadaic acid analogue], the pIC50 in test [2] is 4.03; in test [1], 6.52.
In test [1], `C=C1[C@@H](O)[C@@H]2O[C@]3(CCCO3)CC[C@H]2O[C@@H]1[C@@H](O)C[C@H](C)[C@H]1O[C@@]2(CCCCO2)CC[C@H]1C` [okadaic acid analogue] showed a negative-log IC50 (pIC50) of less than 3.00.
